The target of assay [1] is BRM (Homo sapiens, UniProt P51531). The assay is described as follows: Immunofluorescence assay for BRM degradation in SW1573 cells. It is filed as cell-based. Conditions: 20 hours incubation; for DC50: immunofluorescence mean nuclear signal, read-out: BRM IF Degradation IC50; for BRM IF Degradation Sinf (%): normalized to a known degrader control. Set-up: treated overnight at 4° C. with either BRM primary antibody (Cell signaling Cat #11966) or BRG primary antibody; endogenous in cells; host or cells: SW1573. In a few lines:
(§1)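 Imaging-based readout in SW1573: 20 h dosing, formaldehyde fixation, antibody staining for either remodeler, nuclear intensity per cell quantified. Values normalized to control degrader; floating-maximum fit.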

The target in assay [2] is T1, BRG1 (Homo sapiens, UniProt P51532).
T1 construct: either BRM primary antibody (Cell signaling Cat #11966) or BRG primary antibody (Abcam, ab 110641); endogenous in cells; host or cells: SW1573
Description: Immunofluorescence assay for BRG1 degradation in SW1573 cells. Type of assay: cell-based. The settings on record: 20 hours incubation; for DC50: immunofluorescence mean nuclear signal, read-out: BRG1 IF Degradation IC50; for Dmax: SW1573, 20 h, normalized to a known degrader control, read-out: BRG1 IF Degradation Sinf (%). In a few lines: as §1

Consider 19 molecules from patent publication US11993599B2, “Therapeutic compounds” (Genentech, Inc., priority 2021, dated 2024).

T1 sequence (P51532 whole entry): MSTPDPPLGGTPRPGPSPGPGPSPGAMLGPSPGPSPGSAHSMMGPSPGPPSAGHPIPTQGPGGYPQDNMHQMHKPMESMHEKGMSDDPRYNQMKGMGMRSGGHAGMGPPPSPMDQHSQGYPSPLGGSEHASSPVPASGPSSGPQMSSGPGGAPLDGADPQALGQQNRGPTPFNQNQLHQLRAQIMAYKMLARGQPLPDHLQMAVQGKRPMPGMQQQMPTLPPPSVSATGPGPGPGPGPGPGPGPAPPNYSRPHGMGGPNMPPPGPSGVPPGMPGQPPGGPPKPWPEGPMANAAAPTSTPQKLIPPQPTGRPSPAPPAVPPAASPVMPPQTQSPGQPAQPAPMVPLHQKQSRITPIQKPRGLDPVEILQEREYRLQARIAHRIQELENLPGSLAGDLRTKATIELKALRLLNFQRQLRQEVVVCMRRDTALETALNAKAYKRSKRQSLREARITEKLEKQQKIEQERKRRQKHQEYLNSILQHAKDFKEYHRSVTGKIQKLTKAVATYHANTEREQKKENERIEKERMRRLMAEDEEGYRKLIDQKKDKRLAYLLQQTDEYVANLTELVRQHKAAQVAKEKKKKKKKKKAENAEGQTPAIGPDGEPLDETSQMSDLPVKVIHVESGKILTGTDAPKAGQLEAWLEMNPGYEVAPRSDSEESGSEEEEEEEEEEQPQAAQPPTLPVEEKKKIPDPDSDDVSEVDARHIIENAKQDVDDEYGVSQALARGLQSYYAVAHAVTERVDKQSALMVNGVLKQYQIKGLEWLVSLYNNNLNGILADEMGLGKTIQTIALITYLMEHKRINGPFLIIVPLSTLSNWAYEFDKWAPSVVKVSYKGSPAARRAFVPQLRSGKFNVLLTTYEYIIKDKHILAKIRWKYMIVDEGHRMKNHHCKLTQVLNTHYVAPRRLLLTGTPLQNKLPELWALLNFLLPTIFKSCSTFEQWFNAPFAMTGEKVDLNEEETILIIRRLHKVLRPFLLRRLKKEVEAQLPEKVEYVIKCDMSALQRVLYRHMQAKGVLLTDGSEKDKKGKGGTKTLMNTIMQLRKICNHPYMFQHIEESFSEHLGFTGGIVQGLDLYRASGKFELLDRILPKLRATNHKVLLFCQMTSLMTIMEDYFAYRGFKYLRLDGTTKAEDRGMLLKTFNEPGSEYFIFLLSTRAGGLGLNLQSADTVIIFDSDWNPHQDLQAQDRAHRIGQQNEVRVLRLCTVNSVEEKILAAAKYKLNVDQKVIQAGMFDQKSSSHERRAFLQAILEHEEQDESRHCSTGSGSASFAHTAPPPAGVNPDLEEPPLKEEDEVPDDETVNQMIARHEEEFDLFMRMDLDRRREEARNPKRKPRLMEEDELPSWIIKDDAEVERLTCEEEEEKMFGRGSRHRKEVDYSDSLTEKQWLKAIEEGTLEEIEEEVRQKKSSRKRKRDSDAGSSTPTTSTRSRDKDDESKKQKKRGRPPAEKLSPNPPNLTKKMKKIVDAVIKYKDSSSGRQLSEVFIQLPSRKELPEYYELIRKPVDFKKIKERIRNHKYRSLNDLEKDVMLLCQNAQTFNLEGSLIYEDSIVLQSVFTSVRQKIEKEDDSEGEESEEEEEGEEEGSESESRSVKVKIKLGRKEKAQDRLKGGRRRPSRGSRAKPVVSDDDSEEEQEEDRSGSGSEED
Chain of BRM (P51531 whole entry): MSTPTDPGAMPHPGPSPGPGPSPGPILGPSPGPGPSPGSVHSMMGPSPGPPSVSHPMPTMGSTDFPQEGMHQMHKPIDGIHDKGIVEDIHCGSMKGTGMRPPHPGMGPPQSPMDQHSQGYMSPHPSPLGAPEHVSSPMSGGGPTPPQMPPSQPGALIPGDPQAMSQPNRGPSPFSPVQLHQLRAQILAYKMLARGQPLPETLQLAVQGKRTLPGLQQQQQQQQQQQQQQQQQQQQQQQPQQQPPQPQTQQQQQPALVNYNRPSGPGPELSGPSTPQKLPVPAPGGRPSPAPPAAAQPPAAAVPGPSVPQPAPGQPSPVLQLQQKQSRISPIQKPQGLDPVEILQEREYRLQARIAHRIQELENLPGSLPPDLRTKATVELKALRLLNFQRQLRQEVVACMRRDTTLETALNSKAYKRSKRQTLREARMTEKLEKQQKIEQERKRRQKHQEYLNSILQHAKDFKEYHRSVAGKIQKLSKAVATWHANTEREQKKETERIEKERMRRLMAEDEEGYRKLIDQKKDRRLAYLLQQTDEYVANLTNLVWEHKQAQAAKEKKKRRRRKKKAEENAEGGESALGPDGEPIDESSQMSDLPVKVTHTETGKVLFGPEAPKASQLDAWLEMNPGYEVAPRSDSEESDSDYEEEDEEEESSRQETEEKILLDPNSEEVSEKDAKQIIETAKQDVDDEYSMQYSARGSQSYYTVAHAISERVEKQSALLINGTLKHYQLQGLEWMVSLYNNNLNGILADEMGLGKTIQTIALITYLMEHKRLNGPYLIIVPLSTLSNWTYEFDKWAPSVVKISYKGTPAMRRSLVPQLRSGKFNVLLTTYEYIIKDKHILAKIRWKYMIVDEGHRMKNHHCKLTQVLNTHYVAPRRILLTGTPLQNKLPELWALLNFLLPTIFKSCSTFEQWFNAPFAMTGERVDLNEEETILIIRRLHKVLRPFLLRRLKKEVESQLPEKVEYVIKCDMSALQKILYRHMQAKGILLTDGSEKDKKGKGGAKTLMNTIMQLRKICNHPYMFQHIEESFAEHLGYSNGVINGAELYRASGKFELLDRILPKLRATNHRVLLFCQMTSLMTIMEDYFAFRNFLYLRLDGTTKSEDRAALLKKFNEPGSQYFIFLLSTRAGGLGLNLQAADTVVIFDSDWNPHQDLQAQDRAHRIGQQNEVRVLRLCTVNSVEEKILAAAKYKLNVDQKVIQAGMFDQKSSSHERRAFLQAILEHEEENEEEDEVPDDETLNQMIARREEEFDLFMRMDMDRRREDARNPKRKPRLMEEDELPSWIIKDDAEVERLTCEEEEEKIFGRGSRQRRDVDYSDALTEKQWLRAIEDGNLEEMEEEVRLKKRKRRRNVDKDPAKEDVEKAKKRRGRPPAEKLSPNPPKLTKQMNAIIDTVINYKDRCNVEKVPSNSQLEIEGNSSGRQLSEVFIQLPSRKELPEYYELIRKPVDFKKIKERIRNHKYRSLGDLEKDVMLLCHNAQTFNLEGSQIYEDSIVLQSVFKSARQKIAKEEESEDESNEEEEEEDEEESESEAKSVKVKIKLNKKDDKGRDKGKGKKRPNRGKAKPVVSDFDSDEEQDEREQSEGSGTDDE

Turning to `Nc1nnc(-c2ccccc2O)cc1N1CC2CCC(C1)N2c1ccnc(C#CCN2CCc3nccn3CC2)c1` [Compound 203, 2-[6-amino-5-[8-[2-[3-(5,6,8,9-tetrahydroimidazo[l,2-d][1,4]diazepin-7-yl)prop-1-ynyl]-4-pyridyl]-3,8-diazabicyclo[3.2.1]octan-3-yl]pyridazin-3-yl]phenol], in assay [1], the DC50 lay in the range of 10 to 100 nM and the “BRM IF Degradation Sinf (%)” value is “E (E indicates −30%-−70%)”. Besides, in assay [2], the DC50 is more than 100 nM.
Turning to `CC1(C)CCCN(CC#Cc2cc(N3C4CCC3CN(c3cc(-c5ccccc5O)nnc3N)C4)ccn2)CC1` [Compound 205, 2-[6-amino-5-[8-[2-[3-(4,4-dimethylazepan-1-yl)prop-1-ynyl]-4-pyridyl]-3,8-diazabicyclo[3.2.1]octan-3-yl]pyridazin-3-yl]phenol], in assay [1], the DC50 was less than 10 nM and the “BRM IF Degradation Sinf (%)” value was “F (F indicates −71%-−120%)”. Moreover, in assay [2], the DC50 was less than 10 nM and the Dmax lay in the range of 30 to 70%.
Regarding `N#CCC1CCN(CC#Cc2cc(N3C4CCC3CN(c3cc(-c5ccccc5O)nnc3N)C4)ccn2)CCC1(F)F` (stereo not shown) [Compound 206, 2-[1-[3-[4-[3-[3-amino-6-(2-hydroxyphenyl)pyridazin-4-yl]-3,8-diazabicyclo[3.2.1]octan-8-yl]-2-pyridyl]prop-2-ynyl]-5,5-difluoro-azepan-4-yl]acetonitrile], the DC50 in assay [1] is 10 to 100 nM; in assay [2], more than 100 nM. Besides, the “BRM IF Degradation Sinf (%)” value in assay [1] was “E (E indicates −30%-−70%)”.
For the molecule `COCC1(O)CCCN(CC#Cc2cc(N3C4CCC3CN(c3cc(-c5ccccc5O)nnc3N)C4)ccn2)CC1` (stereo not shown) [Compound 207, 1-[3-[4-[3-[3-amino-6-(2-hydroxyphenyl)pyridazin-4-yl]-3,8-diazabicyclo[3.2.1]octan-8-yl]-2-pyridyl]prop-2-ynyl]-4-(methoxymethyl)azepan-4-ol], in assay [1], the DC50 lay in the range of 10 to 100 nM and the “BRM IF Degradation Sinf (%)” value is on record as “E (E indicates −30%-−70%)”. Further, in assay [2], the DC50 is more than 100 nM and the Dmax is 71 to 120%.
On the same counts, the results for `Nc1nnc(-c2ccccc2O)cc1N1CC2CCC(C1)N2c1ccnc(C#CCN2CCCC3(CC2)CC3(F)F)c1` (stereo not shown) [Compound 208, 2-[6-amino-5-[8-[2-[3-(2,2-difluoro-7-azaspiro[2.6]nonan-7-yl)prop-1-ynyl]-4-pyridyl]-3,8-diazabicyclo[3.2.1]octan-3-yl]pyridazin-3-yl]phenol] are less than 10 nM, “E (E indicates −30%-−70%)”, less than 10 nM and 30 to 70%.
On the same counts, the results for `Nc1nnc(-c2ccccc2O)cc1N1CC2CCC(C1)N2c1ccnc(C#CCN2CCCC(C(F)(F)F)CC2)c1` (stereo not shown) [Compound 209, 2-[6-amino-5-[8-[2-[3-[4-(trifluoromethyl)azepan-1-yl]prop-1-ynyl]-4-pyridyl]-3,8-diazabicyclo[3.2.1]octan-3-yl]pyridazin-3-yl]phenol] are less than 10 nM, “F (F indicates −71%-−120%)”, less than 10 nM and 30 to 70%.
For the molecule `CC1(C)CC(O)C(O)CN(CC#Cc2cc(N3C4CCC3CN(c3cc(-c5ccccc5O)nnc3N)C4)ccn2)C1` (stereo not shown) [Compound 210, 1-[3-[4-[3-[3-amino-6-(2-hydroxyphenyl)pyridazin-4-yl]-3,8-diazabicyclo[3.2.1]octan-8-yl]-2-pyridyl]prop-2-ynyl]-6,6-dimethyl-azepane-3,4-diol], in assay [1], the DC50 was more than 100 nM and the “BRM IF Degradation Sinf (%)” value is “E (E indicates −30%-−70%)”. The DC50 in assay [2] is more than 100 nM.
Take `CC1CN(CC#Cc2cc(N3C4CCC3CN(c3cc(-c5ccccc5O)nnc3N)C4)ccn2)CCC(F)(F)C1` (stereo not shown) [Compound 212, 2-[6-amino-5-[8-[2-[3-(5,5-difluoro-3-methyl-azepan-1-yl)prop-1-ynyl]-4-pyridyl]-3,8-diazabicyclo[3.2.1]octan-3-yl]pyridazin-3-yl]phenol]: in assay [1], the DC50 was less than 10 nM and the “BRM IF Degradation Sinf (%)” value is “F (F indicates −71%-−120%)”. In addition, in assay [2], the DC50 is less than 10 nM and the Dmax was in the range of 71 to 120%.
Consider `Nc1nnc(-c2ccccc2O)cc1N1CC2CCC(C1)N2c1ccnc(C#CCN2CCCCC(CO)C2)c1` (stereo not shown) [Compound 214, 2-[6-amino-5-[8-[2-[3-[3-(hydroxymethyl)azepan-1-yl]prop-1-ynyl]-4-pyridyl]-3,8-diazabicyclo[3.2.1]octan-3-yl]pyridazin-3-yl]phenol], for which, in assay [1], the DC50 was less than 10 nM and the “BRM IF Degradation Sinf (%)” value is “F (F indicates −71%-−120%)”. In assay [2], the DC50 is less than 10 nM and the Dmax was 30 to 70%.
`Nc1nnc(-c2ccccc2O)cc1N1CC2CCC(C1)N2c1ccnc(C#CCN2CCCC(CO)CC2)c1` (stereo not shown) [Compound 215, 2-[6-amino-5-[8-[2-[3-[4-(hydroxymethyl)azepan-1-yl]prop-1-ynyl]-4-pyridyl]-3,8-diazabicyclo[3.2.1]octan-3-yl]pyridazin-3-yl]phenol]: in assay [1], the DC50 was less than 10 nM and the “BRM IF Degradation Sinf (%)” value is “F (F indicates −71%-−120%)”. In assay [2], the DC50 fell in the range of 10 to 100 nM and the Dmax fell in the range of 71 to 120%.
Regarding `Nc1nnc(-c2ccccc2O)cc1N1CC2CCC(C1)N2c1ccnc(C#CCN2CCCCCC2CO)c1` (stereo not shown) [Compound 216, 2-[6-amino-5-[8-[2-[3-[2-(hydroxymethyl)azepan-1-yl]prop-1-ynyl]-4-pyridyl]-3,8-diazabicyclo[3.2.1]octan-3-yl]pyridazin-3-yl]phenol], in assay [1], the DC50 was less than 10 nM and the “BRM IF Degradation Sinf (%)” value was “F (F indicates −71%-−120%)”. Moreover, in assay [2], the DC50 was less than 10 nM and the Dmax was in the range of 71 to 120%.
Consider `Nc1nnc(-c2ccccc2O)cc1N1CC2CCC(C1)N2c1ccnc(C#CCN2CC3CC(CO)CC32)c1` (stereo not shown) [Compound 217, 2-[6-amino-5-[8-[2-[3-[3-(hydroxymethyl)-6-azabicyclo[3.2.0]heptan-6-yl]prop-1-ynyl]-4-pyridyl]-3,8-diazabicyclo[3.2.1]octan-3-yl]pyridazin-3-yl]phenol], for which, in assay [1], the DC50 was in the range of 10 to 100 nM and the “BRM IF Degradation Sinf (%)” value is given as “E (E indicates −30%-−70%)”. In addition, in assay [2], the DC50 was in the range of 10 to 100 nM and the Dmax lay within 30 to 70%.
As to `Nc1nnc(-c2ccccc2O)cc1N1CC2CCC(C1)N2c1ccnc(C#CCN2CCC3CCC2CC3)c1` [Compound 218, 2-[6-amino-5-[8-[2-[3-(2-azabicyclo[3.2.2]nonan-2-yl)prop-1-ynyl]-4-pyridyl]-3,8-diazabicyclo[3.2.1]octan-3-yl]pyridazin-3-yl]henol], in assay [1], the DC50 is less than 10 nM and the “BRM IF Degradation Sinf (%)” value is given as “F (F indicates −71%-−120%)”. Also, in assay [2], the DC50 is less than 10 nM and the Dmax was 30 to 70%.
For `CC1CC(O)CCN(CC#Cc2cc(N3C4CCC3CN(c3cc(-c5ccccc5O)nnc3N)C4)ccn2)C1` (stereo not shown) [Compound 219, 1-[3-[4-[3-[3-amino-6-(2-hydroxyphenyl)pyridazin-4-yl]-3,8-diazabicyclo[3.2.1]octan-8-yl]-2-pyridyl]prop-2-ynyl]-6-methyl-azepan-4-ol], in assay [1], the DC50 is less than 10 nM and the “BRM IF Degradation Sinf (%)” value was “F (F indicates −71%-−120%)”. In assay [2], the DC50 is less than 10 nM and the Dmax lay within 71 to 120%.
As to `Nc1nnc(-c2ccccc2O)cc1N1CC2CCC(C1)N2c1ccnc(C#CCN2CCC3CCC2C3)c1` (stereo not shown) [Compound 221, 2-[6-amino-5-[8-[2-[3-(2-azabicyclo[3.2.1]octan-2-yl)prop-1-ynyl]-4-pyridyl]-3,8-diazabicyclo[3.2.1]octan-3-yl]pyridazin-3-yl]phenol], in assay [1], the DC50 was less than 10 nM and the “BRM IF Degradation Sinf (%)” value is “E (E indicates −30%-−70%)”. In assay [2], the DC50 was less than 10 nM and the Dmax lay in the range of 30 to 70%.
As to `Nc1nnc(-c2ccccc2O)cc1N1CC2CCC(C1)N2c1ccnc(C#CCCN2CCCCCC2)c1` [Compound 222, 2-[6-amino-5-[8-[2-[4-(azepan-l-yl)but-1-ynyl]-4-pyridyl]-3,8-diazabicyclo[3.2.1]octan-3-yl]pyridazin-3-yl]phenol], in assay [1], the DC50 was less than 10 nM and the “BRM IF Degradation Sinf (%)” value is recorded as “F (F indicates −71%-−120%)”. Also, in assay [2], the DC50 was less than 10 nM and the Dmax lay in the range of 71 to 120%.
Take `Nc1nnc(-c2ccccc2O)cc1N1CC2CCC(C1)N2c1ccnc(C#CCN2CC(F)(F)C2)c1` [Compound 223, 2-[6-amino-5-[8-[2-[3-(3,3-difluoroazetidin-1-yl)prop-1-ynyl]-4-pyridyl]-3,8-diazabicyclo[3.2.1]octan-3-yl]pyridazin-3-yl]phenol]: in assay [1], the DC50 lay within 10 to 100 nM and the “BRM IF Degradation Sinf (%)” value is “E (E indicates −30%-−70%)”. In assay [2], the DC50 was less than 10 nM and the Dmax fell in the range of 30 to 70%.
On the same counts, the results for `CCOC1CN(CC#Cc2cc(N3C4CCC3CN(c3cc(-c5ccccc5O)nnc3N)C4)ccn2)C1` [Compound 224, 2-[6-amino-5-[8-[2-[3-(3-ethoxyazetidin-1-yl)prop-1-ynyl]-4-pyridyl]-3,8-diazabicyclo[3.2.1]octan-3-yl]pyridazin-3-yl]phenol] are less than 10 nM, “E (E indicates −30%-−70%)”, less than 10 nM and 30 to 70%.
Take `COC(=O)C1CN(CC#Cc2cc(N3C4CCC3CN(c3cc(-c5ccccc5O)nnc3N)C4)ccn2)C1` [Compound 225]: in assay [1], the DC50 is 10 to 100 nM and the “BRM IF Degradation Sinf (%)” value is given as “E (E indicates −30%-−70%)”. In assay [2], the DC50 was less than 10 nM and the Dmax was 0 to 30%.
